Among the test systems are 786-0; CAKI-1; COLO 205; HCT-116; HCT-15; HL-60; LOX IMVI; MOLT-4; NCI-H226; NCI-H460; OVCAR-3; OVCAR-5; SF-268; SK-MEL-28; TK-10; DU-145; MCF7; MDA-MB-231; PC-3.
Common to all, as to assay: NCI-60 cell line screen, 48 h

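Cultured in 96-well plates, cells were exposed to test compound for 48 hours across five concentrations. The concentration for 50% growth inhibition is given as GI50.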 Activity calls are given as the source filed them. No stated cut-off is given here; in the data, active = GI50 up to about 1.1 µM and inactive = higher. Bounds are passed on as bounds.

With `COc1cc(C(C)c2cc3c(cc2OCCN)OCO3)cc(OC)c1OC` (configuration not stated), the GI50 was > 100 µM (inactive) in the experiment on 786-0; > 100 µM (inactive) in the experiment with CAKI-1; > 100 µM (inactive) with COLO 205; > 100 µM (inactive) with HCT-116; greater than 100 µM in the experiment with HCT-15; 20 µM (inactive) in the experiment with HL-60. Moreover, the GI50 in the experiment on LOX IMVI is > 100 µM (inactive); in the experiment with MOLT-4, 10.9 µM (inactive); in the experiment with NCI-H226, 32.1 µM (inactive); in the experiment on NCI-H460 it was > 100 µM (inactive); with OVCAR-3, > 100 µM (inactive); with OVCAR-5, 46.6 µM (inactive). Also, the GI50 is 73.8 µM (inactive) in the experiment on SF-268, 28.2 µM (inactive) with SK-MEL-28 and 73.5 µM (inactive) in the experiment with TK-10.

With `COc1ccc2c(c1)CCN1CCCc3ccc(OC)cc3C21` (configuration not stated), the GI50 in the experiment with 786-0 was 49.1 µM (inactive); with CAKI-1, 41.8 µM (inactive); with COLO 205, 44.4 µM (inactive); in the experiment on DU-145, > 100 µM (inactive); in the experiment on HCT-116, 31.3 µM (inactive); in the experiment on HCT-15, 54.8 µM. For the same compound, the GI50 in the experiment on LOX IMVI is 41.2 µM (inactive); in the experiment on MCF7 it was 31.3 µM (inactive); with MDA-MB-231, 49.8 µM (inactive); in the experiment with MOLT-4 it was 37.1 µM (inactive); in the experiment with NCI-H226, 38.5 µM (inactive); in the experiment on OVCAR-3, 92 µM (inactive). Moreover, the GI50 in the experiment with OVCAR-5 was 89.9 µM (inactive); in the experiment on PC-3 it was 28.5 µM (inactive); with SF-268, 82.6 µM (inactive); with SK-MEL-28, > 100 µM (inactive); in the experiment on TK-10, > 100 µM (inactive).

As to `CC(SC(=S)Nc1cccc(F)c1)C(=O)O` (configuration not stated), the GI50 in the experiment on 786-0 was 34.4 µM (inactive); in the experiment on CAKI-1 it was 45.8 µM (inactive); in the experiment on COLO 205, > 10 µM (inactive); in the experiment with HCT-116, 19.2 µM (inactive); with HCT-15, 26.1 µM; in the experiment with HL-60, 13.3 µM (inactive). The GI50 is 16.1 µM (inactive) with LOX IMVI; 17.5 µM (inactive) in the experiment with MOLT-4; 20.1 µM (inactive) in the experiment on NCI-H226; 26.2 µM (inactive) in the experiment on NCI-H460; 27.4 µM (inactive) in the experiment on OVCAR-3; 46.5 µM (inactive) in the experiment on OVCAR-5. The figures for the GI50 with SF-268, in the experiment with SK-MEL-28 and with TK-10 were 13.6 µM (inactive), 16.1 µM (inactive) and 29.2 µM (inactive), respectively.

Turning to `CCCCCCCCCCCC(=O)CC(=O)c1c(O)cccc1O`, the GI50 with 786-0 is 23.3 µM (inactive); with CAKI-1, > 10 µM (inactive); in the experiment with COLO 205, 17.3 µM (inactive); in the experiment on HCT-116, 16.6 µM (inactive); in the experiment with HCT-15, 22.6 µM; with HL-60, 34.9 µM (inactive). In addition, the GI50 was 17.4 µM (inactive) in the experiment with LOX IMVI; 19.7 µM (inactive) in the experiment on MOLT-4; 16.7 µM (inactive) in the experiment with NCI-H226; 19 µM (inactive) in the experiment on NCI-H460; 19.8 µM (inactive) in the experiment with OVCAR-3; 15.5 µM (inactive) with OVCAR-5. The GI50 in the experiment with SF-268 is 16.4 µM (inactive); in the experiment on SK-MEL-28, 21.4 µM (inactive); in the experiment with TK-10, 24.9 µM (inactive).

On to `COc1ccc(N2C(=O)C3c4[nH]c5ccc(OC)cc5c4C4CCC(C(C)(C)C)CC4C3C2=O)cc1` (configuration not stated), for which the GI50 with 786-0 was 16.8 µM (inactive); in the experiment on CAKI-1, 42.6 µM (inactive); in the experiment on COLO 205 it was 12.3 µM (inactive); in the experiment with HCT-116, 10.5 µM (inactive); in the experiment on HCT-15 it was greater than 100 µM; in the experiment with HL-60, 43 µM (inactive). Besides, the GI50 was 34.2 µM (inactive) with LOX IMVI; 28.6 µM (inactive) in the experiment on MOLT-4; 30.5 µM (inactive) in the experiment with NCI-H226; 16.6 µM (inactive) with NCI-H460; 92.3 µM (inactive) in the experiment on OVCAR-3; > 100 µM (inactive) in the experiment on OVCAR-5. In addition, the GI50 was 14.3 µM (inactive) in the experiment with SF-268, 23.2 µM (inactive) in the experiment on SK-MEL-28 and 33.3 µM (inactive) with TK-10.

The values above are taken from ChEMBL document CHEMBL1201862, “PubChem BioAssay data set” (2004).
